Test results as given in patent publication US20230201221A1, “USE OF TERPENOIDS IN THE TREATMENT OR PREVENTION OF FIBROTIC DISEASES” (ARJIL BIOTECH HOLDING COMPANY LIMITED, priority 2020, published 2023).
“And” between values parts separate entries of the source, which are not always exact repeats. Identical values can stand only once.

Columns and labels:
Format in all cases: in vivo
MPO = test: Bleomycin-induced pulmonary fibrosis in mice: lung myeloperoxidase (MPO) assay; conditions: compared with BLM group, p<0.001
Protocol: (§1) Mice were divided into fifth groups with 5 animals per group according to body weight: control group, BLM group, BLM+DEX group (7.5 mg/kg), BLM+ACH dosage group (50 mg/kg), and BLM+ACM dosage group (25 mg/kg), BLM+ACH dosage group (50 mg/kg), and BLM+ACM dosage group (25 mg/kg) BLM+AH dosage group (50 mg/kg), and BLM+AM dosage group (25 mg/kg) BLM+BH dosage group (50 mg/kg), and BLM+BM dosage group (25 mg/kg) BLM+CH dosage group (50 mg/kg), and BLM+CM dosage group (25 mg/kg) BLM+DH dosage group (50 mg/kg), and BLM+DM dosage group (25 mg/kg) BLM+EH dosage group (50 mg/kg), and BLM+EM dosage group (25 mg/kg) BLM. Pulmonary fibrosis (PF) was established in mice via a single intratracheal administration of BLM at 7.5 mg/kg mg/kg body weight. Different doses of samples were intragastrically administered daily for 21 days after BLM injury, and DEX was used as the positive control. Control and model groups received an equal volume of vehicle (0.9% NaCl) using the same schedule and route of administration.
The pulmonary MPO activity was a reliable index for estimating the infiltration of inflammatory cells in lungs. The lung tissues were homogenized and the MPO levels were detected with the kits according to manufacturer's instruction.

ICR mice [1] = test: Bleomycin-induced pulmonary fibrosis in mice: lung hydroxyproline content; conditions: extract 1.0 g/kg; AH, BH, DH 50 mg/kg; p<0.001
Protocol: as §1
The contents of hydroxyproline were analyzed in lung tissue following the instruction of hydroxyproline assay kit (Biosource International Inc., Sunnyvale, Calif., USA). The pulmonary tissues of mice were ground and homogenized with 1 ml of 6 mol/L […] solution, hydrolyzed at 95° C. for 5 hours, and the pH value was adjusted to 6.0-6.8. According to the instructions, the corresponding reagents were added to the reaction system and mixed thoroughly and then incubated for 15 minutes at 60° C. After cooling, the supernatants were collected after centrifuging at 3500 rpm for 10 minutes. The absorbance value of the supernatant from the samples was measured at 550 nm by a spectrophotometer and calculated for the contents of hydroxyproline on each group.

C57BL/6 mice = test: Cisplatin-induced renal injury in mice: serum CRE and BUN; conditions: extracts at 1000 mg/kg; compared to cisplatin-stimulated group, p<0.001
Protocol: Determination of biochemical parameters Serum creatinine and serum urea are assessed using colorimetric kits according to manufacturer's instructions. Kits of the former markers are purchased from (HUMAN Diagnostics Worldwide, Magdeburg, Germany) with a chemical analyzer (Roche Diagnostics, Cobas Mira Plus, Rotkreuz, Switzerland).
Seven-to-eight-week-old male C57BL/6 mice are obtained from the BioLASCO Taiwan Co., Ltd. (Taipei, Taiwan). The animals are housed in Plexiglas cages at a constant temperature of 22±1° C. and a relative humidity of 55±5% on a 12 h dark-light cycle for at least 2 weeks before the experiment. Animals are provided food and water ad libitum. All experimental procedures are performed according to the guidelines of the Institutional Animal Ethics Committee, and the protocol is approved by the Committee for the Purpose of Control and Supervision of Experiments on Animals.
Renal fibrosis is induced via multiple injections of low-dose cisplatin. Intraperitoneal injections of cisplatin (5 mg/kg/injection; P4394, Sigma-Aldrich, St Louis, Mo.) are performed at 0, 1, and 3 weeks, for a total of 3 injections. Mice are sacrificed at 6 weeks after the first dose of cisplatin (n=6). To analyze the effects of samples, mice are given daily intraperitoneal injections for 7 days, starting from 4 weeks after first dose of cisplatin, and sacrificed at […] (n=6).

[2] = system: New Zealand White rabbits; test: Hypercholesterolemic rabbit model: liver histology scores (steatosis, inflammation, fibrosis); parameters: key to Score of Fibrosis: 0: none; 1: mild perisinusoidal or periportal; 2: perisinusoidal and portal/periportal; 3: bridging fibrosis; 4: cirrhosis; key to Score of Steatosis Location: 0: zone 3, centrilobular; 1: zone 2, mid-zonal; 3: panacinar; conditions: individual liver slides; 0.5% cholesterol chow plus 10 mg/kg Lovastatin, 1% ARH003, 1% ARH004 or 10 mg/kg AR101-DS2; 12-week study
ICR mice [3] = test: Bleomycin-induced pulmonary fibrosis in mice: body weight, lung weight, lung index; conditions: for Pulmonary index: (lung weight/body weight)×100
Protocol: Specific pathogen-free ICR mice (males) (body weights 18-22 g) were purchased from the BioLASCO Taiwan Co., Ltd. (Taipei, Taiwan). The animals were housed in Plexiglas cages at a constant temperature of 22±1° C. and a relative humidity of 55±5% on a 12 h dark-light cycle for at least 2 weeks before the experiment. Animals were provided food and water ad libitum. All experimental procedures were performed according to the guidelines of the Institutional Animal Ethics Committee, and the protocol was approved by the Committee for the Purpose of Control and Supervision of Experiments on Animals.
as §1
Mouse body weights were recorded daily. Mice were sacrificed on the 21th day using excess chloral hydrate hydrochloride anesthesia. Blood was obtained for ELISA analyses, and whole lungs were removed and weighed. The right lungs were fixed in 10% formalin, dehydrated, and embedded in paraffin. The left lungs were used to determine hydroxyproline. The pulmonary coefficient was calculated using the following equation: lung weight/body weight×100%
1. Group I: control; 2. Group II: mice received single intraperitoneal injection of BLM (7.5 mg/kg BW) 3. Group III: single dose (ACH, 0.5 g/kg) 4. Group IV: Single dose (ACM, 1.0 g/kg) 5. […] Group VII: purified AR101-DS2 (50 mg/kg) 8. Group VIII: purified AR101-DS2 (25 mg/kg) 7. Group VII: purified AR101-DS4 (50 mg/kg) 8. Group VIII: purified AR101-DS4 (25 mg/kg) 7. […] Group VII: purified ARH013-RA1 (50 mg/kg) 8. Group VIII: purified ARH013-RA1 (25 mg/kg)

[4] = system: TNF-α, IL-1β, IL-6 and TGF-β; test: Bleomycin-induced pulmonary fibrosis in mice: pro-inflammatory cytokines by ELISA; conditions: extract 1.0 g/kg; BH, DH 50 mg/kg; after BLM challenge; p<0.001
Protocol: as §1, with “administration. […]” for “administration.”
The serum concentration of the pro-inflammatory cytokines (i.e. tumor necrosis factor-α (TNF-α), interleukin-6 (IL-6), and IL-1β) in serum were assessed with relevant enzyme-linked immunosorbent assay (ELISA) kits (Biosource International Inc., Sunnyvale, Calif., USA), based on the manufacturer's instructions.

[5] = 25 mg/kg intragastric daily for 21 days after BLM
[6] = 50 mg/kg intragastric daily for 21 days after BLM

Row | Molecule | lung MPO activity (MPO) | hydroxyproline (HP) content in lung tissue (ICR mice [1]) | renal protection: normalization of serum CRE and BUN (C57BL/6 mice) | Score of Fibrosis [2] | Score of Inflammation [2] | Score of Steatosis Grade [2] | Score of Steatosis Location [2] | Final body mass (ICR mice [3]; [5]) | Pulmonary mass (ICR mice [3]; [5]) | Pulmonary index (ICR mice [3]; [5]) | Final body mass (ICR mice [3]; [6]) | Pulmonary mass (ICR mice [3]; [6]) | Pulmonary index (ICR mice [3]; [6]) | lung index, result in words (ICR mice [3]; high-dose groups (ACH 1.0 g/kg; BH, DH 50 mg/kg), vs bleomycin-administered animals) | TNF-α, IL-1β, IL-6 and TGF-β production [4]
1 | C=C(CC[C@@H](C)[C@H]1CC[C@H]2C3=C(C(=O)C[C@]12C)[C@@]1(C)CC[C@@H](O)[C@](C)(O)[C@@H]1C[C@@H]3O)[C@@H](C)C(=O)O (racemic) [AR101-DS1, RS-Antcin K] | evidently suppressed the MPO activities | reduced lung HP |  |  |  |  |  |  |  |  |  |  |  |  | 
2 | C=C(CC[C@@H](C(=O)O)[C@H]1CC[C@@]2(C)C3=CC[C@H]4C(C)(C)[C@@H](O)CC[C@]4(C)C3=CC[C@]12C)C(C)C [AR101-DS4, Dehydroeburicoic Acid] |  |  | significant renal protection effect |  |  |  |  |  |  |  |  |  |  |  | 
3 | CC[C@H](C)C(=O)O[C@H]1C[C@@H](C)C=C2C=C[C@H](C)[C@H](CC[C@@H]3C[C@@H](O)CC(=O)O3)[C@H]21 [L, Lovastatin, reference compound] |  |  |  | 0 (2×) and 1 | 1 (mild, 2 foci per 200 field) and 0 and 2 (moderate, 2-4 foci per 200 field) | 2 (33-66%) (2×) and 0 (low- to medium-power evaluation of parenchymal involvement <5%) | 1 (2×) and 0 |  |  |  |  |  |  |  | 
4 | Dehydrosulphurenic acid/Sulphurenic acid [AR101-DS2] | evidently suppressed the MPO activities | reduced lung HP |  | 0 | 1 (mild, 2 foci per 200 field) (2×) and 2 (moderate, 2-4 foci per 200 field) | 3 (>66%) (2×) and 1 (5-33%) | 2 and 1 and 0 | 37.91 ± 0.30 g | 0.48 ± 0.01 g | 1.26 ± 0.03 | 39.7 ± 0.21 g | 0.39 ± 0.01 g | 1.01 ± 0.02 | significant decrease in the lung index | improved TNF-α, IL-1β, IL-6 and TGF-β production
